Laboratory results from patent publication US20260231929A1, “SOLVENT COMPOSITION FOR AGROCHEMICAL FORMULATIONS” (SPECIALTY OPERATIONS FRANCE, priority 2023, published 2026).

Test: Test 1: Maximal solubility of an active in a solvent system (visual observation)
Assay type: physicochemical
Description: The maximal solubility of an active or a combo of actives in a solvent system is characterized by visual observation. At a given concentration, if the mixture is limpid (with the naked eye), the active ingredient(s) is (are) considered to be soluble in the solvent system at this concentration. However, if a sedimentation of the active ingredient(s) appears, it is not soluble anymore in the solvent system and the maximal solubility is reached. The maximal solubility is thus defined as the maximum amount of active ingredient(s) that can be dissolved in the solvent system, equal to the amount at which the mixture remains limpid (with the naked eye). Each active ingredient or combo is added little by little in different solvent systems. The solutions are magnetically stirred until complete dissolution. Then an additional amount of active ingredient is added and this operation is repeated until the last part of active ingredient added could not be dissolved anymore, taking care to stir the solution after each addition of active ingredient.

maximal solubility of Oxyfluorfen (oxyfluorfen (solo) dissolved in the solvent system): 49.0 g/100 g of solvent
maximal solubility of Picoxystrobin (picoxystrobin (solo) dissolved in the solvent system): 30.0 g/100 g of solvent
SMILES: CCCCCCCCCC(=O)N(C)C [Rhodiasolv ® ADMA 10, N,N-dimethyldecanamide]
